# Measured values: patent US20020123037A1, “Selection Procedure Using Prodrug/Enzyme System” (Cobra Therapeutics Limited, priority 1999, published 2002)
# Where “and” joins values, the source holds several entries; their conditions need not be identical. Equal values may be shown once.
# Legend:
# [1] = tested on: mammalian DT diaphorases; settings: cited from earlier work
# [2] = tested on: E.coli C600Hfl lysogens of λJG3J1 and λJG16C1; assay: Induction of phage release from 5:1 mixture of lysogens JG3J1 (control) and JG16C1 (ntr) by CB1954; type: cell-based; settings: for #### (Control phage in the section above) / No. cols / Phage particles / No. ntr phage (colonies containing λJG16C1 of colonies screened by PCR): 500 μM CB1954
# Procedure: E.coli C600Hfl (obtained from Promega Cat No. D3131) were infected with λJG3J1 or λJG16C1 for 15min at 37 °C and spread onto kanamycin (30µg/ml) selective Lennox agar (LA) plates to select for lysogens. A single colony of each was picked, and the lysogenic bacteria were then grown aerobically at 37 °C to mid log phase in LB containing 0.1mM IPTG. Approximately 4.8 x 10^8 λJG3J1 lysogens and 9 x 10^7 λ JG16C1 lysogens (as estimated from the optical density; approximate 5:1 ratio without:with nitroreductase) were mixed in 5ml LB containing 0.1mM IPTG in the presence or absence of 500 µM CB1954 (provided by Cobra Therapeutics and diluted from a 50mM stock solution in 2:7 N-methyl pyrrolidinone:PEG300). The mixtures of bacterial lysogens were incubated at 37 °C with shaking and 50µl samples removed at intervals between 15 and 185 minutes after mixing.
# Each sample was immediately mixed with 1ml LB and 100µl chloroform to kill any bacteria, briefly centrifuged to pellet debris, and the supernatant diluted 1 in 10 before using 10 µl to infect E. coli C600Hfl and plating onto LA containing kanamycin, to select for bacteria lysogenised by bacteriophage in the sample.
# The number of colonies growing from the samples was counted the following day, and indicates the total number of bacteriophage present in the sample.
# The polymerase chain reaction (PCR) was used to determine whether the bacteria in each colony contained λJG3J1 or λJG16C1. A number of individual colonies were picked at random from the most relevant plates and transferred to a 200µl PCR tube, lysed in a microwave for 2min and 35µl of PCR reaction mix [16mM (NH4)2SO4, 67mM Tris-Cl (pH 8.8 at 25 °C), 0.01% Tween-20 (Bioline), 0.2mM each dNTP, 1.5mM MgCl2, 1 U Biotaq (Bioline)] plus 0.25 µM primersJ
# A tube containing reaction mix but no bacteria was used as a control to check for contamination of PCR reaction components. After 30 cycles (94 °C/5min; then 30x 94 °C/45s, 55 °C/45s, 72 °C/160s; then 72 °C/10min) the PCR products were analysed by gel electrophoresis to determine the product size. Lysogens containing λJG16C1 expressing ntr gave a 1.1kb product whereas λJG3J1 lysogens gave a 0.4kb product. All the colonies gave one or the other of these two bands but not both, and the negative control confirmed the absence of contamination in the PCR.
# [3] = molecular target: wild type nitroreductase (Escherichia coli, UniProt P38489); settings: CB1954 as substrate, reference 9, cited from earlier work
# [4] = tested on: colorectal, pancreatic and ovarian tumour cell lines; settings: retroviral transfer of nitroreductase expression cassette; McNeish et al., 1998; Green et al., 1996; cited from earlier work
# [5] = tested on: nitroreductase-expressing tumours; settings: mice harbouring nitroreductase-expressing tumours; McNeish et al., 1998; cited from earlier work
# [6] = 15 min after mixing & induction
# [7] = 30 min after mixing & induction
# [8] = 45 min after mixing & induction
# [9] = 60 min after mixing & induction
# [10] = 75 min after mixing & induction
# [11] = 90 min after mixing & induction
# [12] = 125 min after mixing & induction
# [13] = 155 min after mixing & induction
# [14] = 185 min after mixing & induction
# wild type nitroreductase, sequence (P38489 whole entry): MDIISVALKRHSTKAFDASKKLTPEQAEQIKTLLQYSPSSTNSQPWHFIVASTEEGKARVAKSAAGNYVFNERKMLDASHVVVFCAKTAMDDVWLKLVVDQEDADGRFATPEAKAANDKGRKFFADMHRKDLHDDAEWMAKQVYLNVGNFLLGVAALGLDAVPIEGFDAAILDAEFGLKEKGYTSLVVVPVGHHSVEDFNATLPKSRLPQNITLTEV
smiles,measurement,setting,value
NC(=O)c1cc(N(CCCl)CCCl)c([N+](=O)[O-])cc1[N+](=O)[O-] [SN 23862],activation by mammalian DT diaphorases,[1],not activated
"NC(=O)c1cc(N2CC2)c([N+](=O)[O-])cc1[N+](=O)[O-] [CB1954, 5-[aziridin-1-yl]-2,4-dinitrobenzamide]",#### (Control phage in the section above),"[2]; 15 min, no PCR typing",0.6
same,No. cols,[2]; [6],3
same,Phage particles,[2]; [6],0.6 10^−6 per ml
same,#### (Control phage in the section above),"[2]; 30 min, no PCR typing",1
same,No. cols,[2]; [7],5
same,Phage particles,[2]; [7],1 10^−6 per ml
same,#### (Control phage in the section above),"[2]; 45 min, no PCR typing",2.2
same,No. cols,[2]; [8],11
same,Phage particles,[2]; [8],2.2 10^−6 per ml
same,#### (Control phage in the section above),[2]; 60 min,3.82
same,No. ntr phage (colonies containing λJG16C1 of colonies screened by PCR),[2]; 60 min,1 of 11
same,No. cols,[2]; [9],21
same,Phage particles,[2]; [9],4.2 10^−6 per ml
same,#### (Control phage in the section above),[2]; 75 min,4.79
same,No. ntr phage (colonies containing λJG16C1 of colonies screened by PCR),[2]; 75 min,6 of 19
same,No. cols,[2]; [10],35
same,Phage particles,[2]; [10],7 10^−6 per ml
same,#### (Control phage in the section above),[2]; 90 min,9.6
same,No. ntr phage (colonies containing λJG16C1 of colonies screened by PCR),[2]; 90 min,18/30 and 18 of 30
same,No. cols,[2]; [11],120
same,Phage particles,[2]; [11],24 10^−6 per ml
same,#### (Control phage in the section above),[2]; 125 min,33.4
same,No. ntr phage (colonies containing λJG16C1 of colonies screened by PCR),[2]; 125 min,11 of 23
same,No. cols,[2]; [12],320
same,Phage particles,[2]; [12],64 10^−6 per ml
same,#### (Control phage in the section above),[2]; 155 min,54.7
same,No. ntr phage (colonies containing λJG16C1 of colonies screened by PCR),[2]; 155 min,6 of 25
same,No. cols,[2]; [13],360
same,Phage particles,[2]; [13],72 10^−6 per ml
same,#### (Control phage in the section above),[2]; 185 min,72
same,No. ntr phage (colonies containing λJG16C1 of colonies screened by PCR),[2]; 185 min,0 of 10
same,No. cols,[2]; [14],360
same,Phage particles,[2]; [14],72 10^−6 per ml
same,enrichment of λJG16C1,"[2]; 90 minute time point, 60% versus 16% at mixing",~ 4 fold
same,proportion of λJG16C1 among recovered bacteriophage (peak),"[2]; culture exposed to CB1954, at 90 minutes, λJG16C1 16% of the mixture at mixing",60%
same,peak concentration of the λJG16C1,"[2]; culture exposed to CB1954, at 125 minutes",3 x 10^7 per ml
same,concentration of total bacteriophages released into the medium,"[2]; culture exposed to CB1954, at 155 minutes",7.2 x 10^7 per ml
same,concentration of total bacteriophages released into the medium,"[2]; culture exposed to CB1954, at early times",6 x 10^5 per ml
same,colony number,"[2]; culture exposed to CB1954, end of the timecourse",~ 360
same,colony number,"[2]; culture exposed to CB1954, start of the timecourse",3
same,level of bacteriophage above background,[2]; first ~60 minutes of exposure to CB1954,no increase
same,turnover rate kcat,[3],6 s⁻¹
same,Km,[3]; read-out: Michaelis constant KM,860 µM
same,sensitisation of tumour cell lines to the prodrug,[4],can sensitise
same,survival of mice,[5],Significantly increased survival and apparent cures
